Assay results published in PMC11532494 (Nature Communications, 2024).
Values joined by “and” are separate entries in the source; they are usually repeats but may differ in a detail not shown here. Identical values can stand only once. Like-named read-outs stand apart in the source and are kept apart here.

Legend:
PsApaH (4) = PsApaH (4) (Pseudomonas sp. M30-35, UniProt A0A1Y0KY79); assay: Acetyl-polyamine deacetylase assay; format: biochemical; details: single samples (replicates)
PA1409 = PA1409 (Pseudomonas aeruginosa, UniProt Q9I3T5); assay: Acetyl-polyamine deacetylase assay (positive control); format: biochemical; details: for A1-A2: absorbance difference between the two time points; for A1-A2 / (A1-A2)-B: sheet Figure 2d; for (A1-A2)-B: absorbance difference minus mean blank; for acetate released, g/l / acetate released, mM / mM normalized to enzyme concentration: PA1409 (positive control enzyme), single samples (replicates)
VsHdaH (1b) = format: biochemical, Vibrio sp.; details: VsHdaH (1b) 3µM; single samples (replicates)
RsPrpH (1b) = assay: Acetyl-polyamine deacetylase assay; format: biochemical, Rhizorhabdus sp.; details: RsPrpH 3µM; single samples (replicates)
RwDmhA (1b) = RwDmhA (1b) (Rhizorhabdus wittichii, UniProt A0A067XIQ6); format: biochemical; details: RwDmhA (1b) 3µM; single samples (replicates)
KpHdaH (1b) = KpHdaH (1b) (Klebsiella pneumoniae, UniProt A0A377Z5F6); format: biochemical; details: KpKDAC (1b); single samples (replicates)
BsAcuC (2c) = target: T1, BsAcuC (2c) (Bacillus subtilis, UniProt P39067); assay: Acetyl-polyamine deacetylase assay; format: biochemical; details: BsAcuC (2c) 3µM; single samples (replicates)
T1 construct: made in house; host or cells: E. coli BL21 (DE3)
T1 sequence (P39067 1-387): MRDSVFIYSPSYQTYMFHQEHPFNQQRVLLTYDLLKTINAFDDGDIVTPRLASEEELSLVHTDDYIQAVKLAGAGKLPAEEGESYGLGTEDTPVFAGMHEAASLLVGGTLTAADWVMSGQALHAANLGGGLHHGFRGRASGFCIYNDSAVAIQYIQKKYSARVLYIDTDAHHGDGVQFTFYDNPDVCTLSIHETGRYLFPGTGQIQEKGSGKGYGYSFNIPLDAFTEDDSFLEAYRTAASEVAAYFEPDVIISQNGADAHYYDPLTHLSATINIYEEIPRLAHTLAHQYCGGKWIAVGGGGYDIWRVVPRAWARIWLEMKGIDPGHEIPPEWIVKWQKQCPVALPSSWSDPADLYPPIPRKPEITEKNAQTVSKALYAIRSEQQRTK

VcHdaH (5b) = assay: Acetyl-polyamine deacetylase assay; format: biochemical, Vibrio cholerae; details: VcHdaH (5b) 6µM; single samples (replicates)
LcApaH (3) = LcApaH (3) (Legionella cherrii, UniProt A0A0W0SGS1); format: biochemical
LpApaH (3) = LpApaH (3) (Legionella pneumophila, UniProt A0A2S6EWV0); format: biochemical
[1] = LcApaH (3), single samples (replicates)

Chain of RwDmhA (1b) (A0A067XIQ6 1-369): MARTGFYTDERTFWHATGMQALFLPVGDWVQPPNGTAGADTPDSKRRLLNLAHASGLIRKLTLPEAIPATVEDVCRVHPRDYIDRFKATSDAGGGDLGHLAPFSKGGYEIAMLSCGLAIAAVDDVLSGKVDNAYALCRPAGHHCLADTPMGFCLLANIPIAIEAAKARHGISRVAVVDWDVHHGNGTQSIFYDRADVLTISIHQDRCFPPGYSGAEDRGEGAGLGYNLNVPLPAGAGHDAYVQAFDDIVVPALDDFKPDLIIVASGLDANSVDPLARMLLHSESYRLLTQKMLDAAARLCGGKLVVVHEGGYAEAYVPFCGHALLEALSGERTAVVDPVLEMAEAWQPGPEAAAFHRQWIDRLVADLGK
Chain of PsApaH (4) (A0A1Y0KY79 1-342 limits assumed): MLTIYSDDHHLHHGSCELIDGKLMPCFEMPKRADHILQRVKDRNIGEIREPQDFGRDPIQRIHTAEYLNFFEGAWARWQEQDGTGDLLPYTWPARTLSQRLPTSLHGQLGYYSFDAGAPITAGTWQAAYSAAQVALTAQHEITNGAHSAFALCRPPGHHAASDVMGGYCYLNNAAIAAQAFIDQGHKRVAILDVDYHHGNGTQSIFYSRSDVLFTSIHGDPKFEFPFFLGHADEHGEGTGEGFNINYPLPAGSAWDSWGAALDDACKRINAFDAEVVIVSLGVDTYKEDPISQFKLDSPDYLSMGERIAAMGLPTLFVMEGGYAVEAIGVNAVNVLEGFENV
Chain of LpApaH (3) (A0A2S6EWV0 1-426): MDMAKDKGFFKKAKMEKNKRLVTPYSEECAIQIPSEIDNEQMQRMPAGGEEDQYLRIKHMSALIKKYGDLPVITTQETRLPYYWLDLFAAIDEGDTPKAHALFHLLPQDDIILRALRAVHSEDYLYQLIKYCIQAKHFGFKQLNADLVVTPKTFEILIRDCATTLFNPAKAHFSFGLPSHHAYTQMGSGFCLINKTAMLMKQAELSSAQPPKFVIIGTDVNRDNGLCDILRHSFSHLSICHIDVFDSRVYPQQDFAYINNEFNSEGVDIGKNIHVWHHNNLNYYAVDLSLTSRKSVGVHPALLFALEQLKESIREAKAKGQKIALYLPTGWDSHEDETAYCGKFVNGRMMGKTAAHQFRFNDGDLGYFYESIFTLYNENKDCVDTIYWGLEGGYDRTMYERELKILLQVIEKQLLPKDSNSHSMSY
Chain of KpHdaH (1b) (A0A377Z5F6 1-371): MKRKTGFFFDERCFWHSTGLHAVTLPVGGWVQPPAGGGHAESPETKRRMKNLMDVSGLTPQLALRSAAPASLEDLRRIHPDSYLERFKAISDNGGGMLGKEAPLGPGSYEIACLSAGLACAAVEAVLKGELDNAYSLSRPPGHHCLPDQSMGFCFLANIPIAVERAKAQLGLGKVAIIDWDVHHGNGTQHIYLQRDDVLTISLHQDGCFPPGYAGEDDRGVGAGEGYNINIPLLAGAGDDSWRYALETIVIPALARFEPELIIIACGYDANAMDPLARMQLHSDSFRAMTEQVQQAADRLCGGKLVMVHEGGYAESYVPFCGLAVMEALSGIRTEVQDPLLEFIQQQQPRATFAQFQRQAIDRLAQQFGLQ
Chain of PA1409 (Q9I3T5 whole entry): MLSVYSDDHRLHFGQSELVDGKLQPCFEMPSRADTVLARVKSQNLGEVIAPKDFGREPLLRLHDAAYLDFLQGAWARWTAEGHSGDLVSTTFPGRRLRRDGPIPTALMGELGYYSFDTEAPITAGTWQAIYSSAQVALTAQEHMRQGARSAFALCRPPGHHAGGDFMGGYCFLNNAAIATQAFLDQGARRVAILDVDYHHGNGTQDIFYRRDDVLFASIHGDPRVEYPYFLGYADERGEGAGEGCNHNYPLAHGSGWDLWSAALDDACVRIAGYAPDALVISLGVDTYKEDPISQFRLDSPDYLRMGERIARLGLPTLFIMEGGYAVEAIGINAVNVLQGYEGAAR
Chain of LcApaH (3) (A0A0W0SGS1 1-425): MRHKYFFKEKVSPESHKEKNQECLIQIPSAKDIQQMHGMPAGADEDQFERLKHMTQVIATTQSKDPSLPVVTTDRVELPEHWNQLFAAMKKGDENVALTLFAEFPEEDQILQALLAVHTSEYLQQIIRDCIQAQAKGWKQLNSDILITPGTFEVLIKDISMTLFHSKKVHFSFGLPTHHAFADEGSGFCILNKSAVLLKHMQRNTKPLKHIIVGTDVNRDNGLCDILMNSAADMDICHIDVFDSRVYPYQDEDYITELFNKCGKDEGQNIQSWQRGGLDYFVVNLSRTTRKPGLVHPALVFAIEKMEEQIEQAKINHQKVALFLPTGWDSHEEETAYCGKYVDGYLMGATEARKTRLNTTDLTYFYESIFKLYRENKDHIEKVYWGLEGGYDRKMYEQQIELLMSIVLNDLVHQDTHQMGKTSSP

## CC(=O)NCCCNCCCCN [N1-acetyl-spermidine]
PsApaH (4)
  acetate released, g/l: 0.0007937 g/L and 0.001587 g/L
  acetate released, mM: 0.01322 mM and 0.02643 mM
PA1409
  A1-A2: 0.377 and 0.374
  (A1-A2)-B: 0.331 and 0.328
VsHdaH (1b)
  acetate released, g/l: -0.0001305 g/L
  acetate released, mM: -0.002174 mM
  mM normalized to enzyme concentration: -0.0007246 mM
RsPrpH (1b)
  acetate released, g/l: 0.0006527 g/L and 0.002219 g/L
  acetate released, mM: 0.01087 mM and 0.03696 mM
  mM normalized to enzyme concentration: 0.003623 mM and 0.01232 mM
RwDmhA (1b)
  acetate released, g/l: -0.0001305 g/L and -0.0003916 g/L
  acetate released, mM: -0.002174 mM and -0.006522 mM
  mM normalized to enzyme concentration: -0.0007246 mM and -0.002174 mM
KpHdaH (1b)
  acetate released, g/l: 0.007111 g/L and 0.006667 g/L
  mM normalized to enzyme concentration: 0.02368 mM and 0.0222 mM
BsAcuC (2c)
  acetate released, g/l: 0.001175 g/L and 0.0003916 g/L
  acetate released, mM: 0.01957 mM and 0.006522 mM
  mM normalized to enzyme concentration: 0.006522 mM and 0.002174 mM
VcHdaH (5b)
  acetate released, g/l: -0.0009138 g/L and 0.0001305 g/L
  acetate released, mM: -0.01522 mM and 0.002174 mM
  mM normalized to enzyme concentration: -0.002536 mM and 0.0003623 mM

## CC(=O)NCCCCN [N1-acetyl-putrescine]
PA1409
  A1-A2: 0.278 and 0.275
  (A1-A2)-B: 0.21 and 0.207
VsHdaH (1b)
  acetate released, g/l: 0.001436 g/L and 0.0003916 g/L and -0.0006527 g/L
  acetate released, mM: 0.02391 mM and 0.006522 mM and -0.01087 mM
  mM normalized to enzyme concentration: 0.007971 mM and 0.002174 mM and -0.003623 mM
RsPrpH (1b)
  acetate released, g/l: 0.003525 g/L and 0.00483 g/L and 0.003003 g/L
  acetate released, mM: 0.0587 mM and 0.08044 mM and 0.05 mM
  mM normalized to enzyme concentration: 0.01957 mM and 0.02681 mM and 0.01667 mM
RwDmhA (1b)
  acetate released, g/l: 0.001436 g/L and 0.006919 g/L and 0.0009138 g/L
  acetate released, mM: 0.02391 mM and 0.1152 mM and 0.01522 mM
  mM normalized to enzyme concentration: 0.007971 mM and 0.03841 mM and 0.005072 mM
KpHdaH (1b)
  acetate released, g/l: 0.01615 g/L and 0.02135 g/L and 0.02198 g/L
  acetate released, mM: 0.2105 mM and 0.2784 mM and 0.2865 mM
  mM normalized to enzyme concentration: 0.02105 mM and 0.02784 mM and 0.02865 mM
BsAcuC (2c)
  acetate released, g/l: 0.001436 g/L and 0.00248 g/L and -0.003264 g/L
  acetate released, mM: 0.02391 mM and 0.0413 mM and -0.05435 mM
  mM normalized to enzyme concentration: 0.007971 mM and 0.01377 mM and -0.01812 mM
VcHdaH (5b)
  acetate released, g/l: -0.003786 g/L and 0.0001305 g/L and 0.01136 g/L
  acetate released, mM: -0.06304 mM and 0.002174 mM and 0.1891 mM
  mM normalized to enzyme concentration: -0.01051 mM and 0.0003623 mM and 0.03152 mM
LcApaH (3)
  acetate released, g/l: 0.002824 g/L and 0.001479 g/L
  acetate released, mM: 0.04702 mM and 0.02463 mM
  mM normalized to enzyme concentration: 0.03135 mM and 0.01642 mM

## CC(=O)NCCCCCN [N1-acetyl-cadaverine]
PsApaH (4)
  acetate released, g/l: 0.08943 g/L and 0.09204 g/L and 0.09674 g/L
  acetate released, mM: 1.489 mM and 1.533 mM and 1.611 mM
PA1409
  acetate released, g/l: 0.1346 g/L
  acetate released, mM: 2.242 mM
  mM normalized to enzyme concentration: 22.4156 mM
  A1-A2: 0.543
  (A1-A2)-B: 0.5015
VsHdaH (1b)
  acetate released, g/l: 0.004047 g/L and 0.005091 g/L and 0.00483 g/L
  acetate released, mM: 0.06739 mM and 0.08478 mM and 0.08044 mM
  mM normalized to enzyme concentration: 0.02246 mM and 0.02826 mM and 0.02681 mM
RsPrpH (1b)
  acetate released, g/l: 0.02441 g/L and 0.02154 g/L and 0.02285 g/L
  acetate released, mM: 0.4065 mM and 0.3587 mM and 0.3804 mM
  mM normalized to enzyme concentration: 0.1355 mM and 0.1196 mM and 0.1268 mM
RwDmhA (1b)
  acetate released, g/l: 0.01449 g/L and 0.01841 g/L and 0.0252 g/L
  acetate released, mM: 0.2413 mM and 0.3065 mM and 0.4196 mM
  mM normalized to enzyme concentration: 0.08044 mM and 0.1022 mM and 0.1399 mM
KpHdaH (1b)
  acetate released, g/l: 0.005 g/L and 0.003 g/L and 0.002 g/L
  acetate released, mM: 0.0755 mM and 0.044 mM and 0.0346 mM
  mM normalized to enzyme concentration: 0.0151 mM and 0.0088 mM and 0.00692 mM
BsAcuC (2c)
  acetate released, g/l: 0.0001305 g/L and -0.0003916 g/L and -0.01371 g/L
  acetate released, mM: 0.002174 mM and -0.006522 mM and -0.2283 mM
  mM normalized to enzyme concentration: 0.0007246 mM and -0.002174 mM and -0.07609 mM
VcHdaH (5b)
  acetate released, g/l: 0.0009138 g/L and -0.0001305 g/L and 0.0003916 g/L
  acetate released, mM: 0.01522 mM and -0.002174 mM and 0.006522 mM
  mM normalized to enzyme concentration: 0.002536 mM and -0.0003623 mM and 0.001087 mM
LcApaH (3); [1]
  acetate released, g/l: 0.0133 g/L and 0.011 g/L
  acetate released, mM: 0.22 mM and 0.18 mM
  mM normalized to enzyme concentration: 0.22 mM and 0.18 mM
LpApaH (3)
  acetate released, g/l: 0.0236 g/L and 0.04 g/L
  acetate released, mM: 0.39 mM and 0.70 mM
  mM normalized to enzyme concentration: 0.20 mM and 0.35 mM

## CC(=O)NCCCNCCCCNCCCNC(C)=O [N1/N12 diacetyl-spermine]
PA1409
  acetate released, g/l: 0.2048 g/L and 0.2032 g/L
  acetate released, mM: 3.41 mM and 3.383 mM
  mM normalized to enzyme concentration: 34.0974 mM and 33.8331 mM
VsHdaH (1b)
  acetate released, g/l: 0.00248 g/L and 0.0003916 g/L
  acetate released, mM: 0.0413 mM and 0.006522 mM
  mM normalized to enzyme concentration: 0.01377 mM and 0.002174 mM and 0.003623 mM
RsPrpH (1b)
  acetate released, g/l: 0.002219 g/L and 0.001175 g/L
  acetate released, mM: 0.03696 mM and 0.01957 mM
  mM normalized to enzyme concentration: 0.01232 mM and 0.006522 mM
RwDmhA (1b)
  acetate released, g/l: 0.001697 g/L and 0.004569 g/L
  acetate released, mM: 0.02826 mM and 0.07609 mM
  mM normalized to enzyme concentration: 0.00942 mM and 0.02536 mM
KpHdaH (1b)
  acetate released, g/l: 0.007868 g/L and 0.006091 g/L and 0.003807 g/L
  acetate released, mM: 0.131 mM and 0.1014 mM and 0.0634 mM
  mM normalized to enzyme concentration: 0.0262 mM and 0.02029 mM and 0.01268 mM
BsAcuC (2c)
  acetate released, g/l: 0.003525 g/L and 0.003264 g/L and -0.001436 g/L
  acetate released, mM: 0.0587 mM and 0.05435 mM and -0.02391 mM
  mM normalized to enzyme concentration: 0.01957 mM and 0.01812 mM and -0.007971 mM
VcHdaH (5b)
  acetate released, g/l: 0.001436 g/L and 0.0001305 g/L and 0.0006527 g/L
  acetate released, mM: 0.02391 mM and 0.002174 mM and 0.01087 mM
  mM normalized to enzyme concentration: 0.003986 mM and 0.0003623 mM and 0.001812 mM
LcApaH (3)
  acetate released, g/l: 0.00344 g/L
  acetate released, mM: 0.06 mM
  mM normalized to enzyme concentration: 0.06 mM
LpApaH (3)
  acetate released, g/l: 0.003439 g/L and 0.00291 g/L
  acetate released, mM: 0.05727 mM and 0.04846 mM
  mM normalized to enzyme concentration: 0.02863 mM and 0.02423 mM
